This is an account of results in ChEMBL document CHEMBL1250534, “Gentisides C-K: nine new neuritogenic compounds from the traditional Chinese medicine Gentiana rigescens Franch” (2010).

Calls of active or inactive are those of the source. No cut-off for these calls is given here.

In assay [1] the test system is PC-12. Description: Neuritogenic activity in rat PC12 cells assessed as induction of neurite outgrowth after 48 hrs. Type of assay: functional, cell-based.
For assay [2], the system named is PC-12. In words: Cytotoxicity against rat PC12 cells at 1 uM. The assay is classed as functional, cell-based.
Assay [3] has as its system PC-12. In words: Neuritogenic activity in rat PC12 cells assessed as induction of multipolar neurite outgrowth at 1 uM after 48 hrs. Type of assay: functional, cell-based.
The test system of assay [4] is PC-12. In words: Neuritogenic activity in rat PC12 cells assessed as induction of bipolar neurite outgrowth at 1 uM after 48 hrs. Type of assay: functional, cell-based.
The test system of assay [5] is PC-12. Description: Neuritogenic activity in rat PC12 cells assessed as induction of neurite outgrowth at 0.03 uM after 48 hrs. Type of assay: functional, cell-based.
For assay [6], the system named is PC-12. Description: Neuritogenic activity in rat PC12 cells assessed as induction of neurite outgrowth at 1 to 30 uM after 48 hrs. Type of assay: functional.
Assay [7] has as its system PC-12. In words: Neuritogenic activity in rat PC12 cells assessed as induction of neurite outgrowth at 1 uM after 48 hrs. Type of assay: functional.
Assay [8] deals with PC-12. Description: Neuritogenic activity in rat PC12 cells assessed as induction of neurite outgrowth at 30 uM after 48 hrs. Type of assay: functional.

Turning to `CC[C@H](C)CCCCCCCCCCCCCOC(=O)c1cccc(O)c1O` [GENTISIDE C], the Activity entry is “Dose-dependent effect” in assay [1], 67% in assay [6] and 91% in assay [7]. Also, the outcome in assay [2] was inactive. In addition, the outcome in assay [3], in assay [4] and in assay [5] was Active. For the molecule `CC(C)CCCCCCCCCCCCCCCOC(=O)c1cccc(O)c1O` [GENTISIDE D], the Activity in assay [6] is listed as 67%. Still for that read-out and setting: in the case of `CCCCCCCCCCCCCCCCCCOC(=O)c1cccc(O)c1O` [GENTISIDE E] it was 67%. On to `CC[C@H](C)CCCCCCCCCCCCCCCOC(=O)c1cccc(O)c1O` [GENTISIDE F], for which the Activity in assay [6] was determined as 67%. On the same count and under the same terms, the result for `CC[C@H](C)CCCCCCCCCCCCCCCCOC(=O)c1cccc(O)c1O` [GENTISIDE G] reads 67%; that for `CC[C@H](C)CCCCCCCCCCCCCCCCCOC(=O)c1cccc(O)c1O` [GENTISIDE H], 67%; that for `CCCCCCCCCCCCCCCCCCCCCOC(=O)c1cccc(O)c1O` [GENTISIDE I], 67%. The same measure, in the same setting: the result for `CCCCCCCCCCCCCCCCCCCCCCOC(=O)c1cccc(O)c1O` [GENTISIDE J] reads 67%.

As for `CCCCCCCCCCCCCCCCCCCCCCCCOC(=O)c1cccc(O)c1O` [GENTISIDE K], the Activity in assay [8] came to 48%.
